Data from ChEMBL document CHEMBL6134898, “In Vitro ADME Profiling of PROTACs: Successes, Challenges, and Lessons Learned from Analysis of Clinical PROTACs from a Diverse Physicochemical Space” (J Med Chem, 2025).
Converted amounts (≈) assume the structure as drawn.

How the values were obtained:
[1] = Lipophilicity, LogD of compound by Chromatography; format: physicochemical
[2] = Intrinsic clearance in human hepatocytes measured per million cells at 1 uM measured for 0.5 to 120 mins by LC-MS/MS analysis; format: ADME, cell-based, Hepatocyte; details: time 0.5-120 min, read-out: CLH
[3] = Protein binding in mouse plasma assessed as free fraction at 5 uM incubated for 18 hrs by LC-MS/MS analysis; format: ADME, cell-free
[4] = Apparent permeability across apical to basal side in human Caco-2 cells at 1 uM incubated for 120 mins by LC-MS/MS analysis; format: ADME, cell-based
[5] = Protein binding in human plasma assessed as compound recovery at 5 uM incubated for 18 hrs by LC-MS/MS analysis; format: ADME, cell-free; details: read-out: Drug recovery
[6] = Protein binding in monkey plasma assessed as free fraction at 5 uM incubated for 18 hrs by LC-MS/MS analysis; format: ADME, cell-free, Macaca mulatta; details: rhesus monkey
[7] = Intrinsic clearance in dog hepatocytes measured per million cells at 1 uM measured for 0.5 to 120 mins by LC-MS/MS analysis; format: ADME, cell-based, Canis lupus familiaris, Hepatocyte; details: time 0.5-120 min, read-out: CLH
[8] = Protein binding in dog plasma assessed as free fraction at 5 uM incubated for 18 hrs by LC-MS/MS analysis; format: ADME, cell-free, Canis lupus familiaris
[9] = Protein binding in rat hepatocytes assessed as free fraction at 5 uM incubated for 18 hrs by LC-MS/MS analysis; format: ADME, cell-based, Hepatocyte
[10] = Stability in human plasma at 5 uM incubated for 18 hrs by LC-MS/MS analysis; format: ADME, cell-free; details: read-out: Stability
[11] = Blood to plasma partitioning ratio in rat at 10 uM incubated for 30 mins by LC-MS/MS analysis; format: ADME, cell-free; details: whole blood
[12] = Intrinsic clearance in rat hepatocytes measured per million cells at 1 uM measured for 0.5 to 120 mins by LC-MS/MS analysis; format: ADME, cell-based, Hepatocyte; details: time 0.5-120 min, read-out: CLH
[13] = Blood to plasma partitioning ratio in dog at 10 uM incubated for 30 mins by LC-MS/MS analysis; format: ADME, cell-free, Canis lupus familiaris; details: whole blood
[14] = Blood to plasma partitioning ratio in human at 10 uM incubated for 30 mins by LC-MS/MS analysis; format: ADME, cell-free; details: whole blood
[15] = Intrinsic clearance in mouse hepatocytes measured per million cells at 1 uM measured for 0.5 to 120 mins by LC-MS/MS analysis; format: ADME, cell-based, Hepatocyte; details: time 0.5-120 min, read-out: CLH
[16] = Protein binding in human plasma assessed as free fraction at 5 uM incubated for 18 hrs by LC-MS/MS analysis; format: ADME, cell-free
[17] = Apparent permeability across apical to basal side in human Caco-2 cells at 1 uM incubated for 120 mins followed by ACN addition by LC-MS/MS analysis; format: ADME, cell-based
[18] = Protein binding in rat plasma assessed as free fraction at 5 uM incubated for 18 hrs by LC-MS/MS analysis; format: ADME, cell-free
[19] = Intrinsic clearance in monkey hepatocytes measured per million cells at 1 uM measured for 0.5 to 120 mins by LC-MS/MS analysis; format: ADME, cell-based, Macaca mulatta, Hepatocyte; details: rhesus monkey, time 0.5-120 min, read-out: CLH
[20] = Solubility of compound in FeSSIF at pH 5 measured after 24 hrs by UPLC analysis; format: physicochemical
[21] = Solubility of compound in FaSSIF at pH 6.5 measured after 24 hrs by UPLC analysis; format: physicochemical
[22] = Solubility of compound in SGF at pH 1.2 measured after 24 hrs by UPLC analysis; format: physicochemical

chromatographic logD [1]	hepatocyte CLint at 1 µM [2]	fraction unbound at 18 h, 5 µM [3]	Papp A→B at 2 h, 1 µM [4]	recovery at 18 h, 5 µM [5]	fraction unbound at 18 h, 5 µM [6]	hepatocyte CLint at 1 µM [7]	fraction unbound at 18 h, 5 µM [8]	fraction unbound at 18 h, 5 µM [9]	remaining at 18 h, 5 µM [10]	blood plasma ratio at 0.5 h, 10 µM [11]	hepatocyte CLint at 1 µM [12]	blood plasma ratio at 0.5 h, 10 µM [13]	blood plasma ratio at 0.5 h, 10 µM [14]	hepatocyte CLint at 1 µM [15]	fraction unbound at 18 h, 5 µM [16]	Papp A→B at 2 h, 1 µM [17]	fraction unbound at 18 h, 5 µM [18]	hepatocyte CLint at 1 µM [19]	solubility at 24 h [20]	SMILES	further results
3.7	3 µL/min/1e6 cells	0.005	< 0.3 ×10⁻⁶ cm/s	43%	0.007	8 µL/min/1e6 cells	0.002	0.016	7%	1.1	5 µL/min/1e6 cells	0.7	0.8	5 µL/min/1e6 cells	< 0.007	1.2 ×10⁻⁶ cm/s	0.014	10 µL/min/1e6 cells		CNC(=O)COc1cc2cc(Nc3nc(N4CCC(O[C@H]5C[C@H](N6CCC(c7ccc8c(c7F)CN(C7CCC(=O)NC7=O)C8=O)CC6)C5)CC4)ncc3Cl)ccc2n(C(C)C)c1=O (stereo partly drawn)	
5.1	< 1 µL/min/1e6 cells	< 0.001	< 0.1 ×10⁻⁶ cm/s	90%	< 0.002	4 µL/min/1e6 cells	< 0.001	0.003	78%	0.6	5 µL/min/1e6 cells	0.5	0.8	8 µL/min/1e6 cells	< 0.004	< 0.1 ×10⁻⁶ cm/s	0.001	6 µL/min/1e6 cells		NC(=O)c1ncc(N2CCCCC2)nc1Nc1ccc(C2CCN(C[C@@H]3CCN(c4ccc5c(c4)C(=O)N(C4CCC(=O)NC4=O)C5=O)C3)CC2)cc1 (stereo partly drawn)	
7.3	3 µL/min/1e6 cells			91%		< 1 µL/min/1e6 cells		< 0.001	92%	0.7	3 µL/min/1e6 cells	0.8	0.9	< 1 µL/min/1e6 cells	< 0.003			≤ 1 µL/min/1e6 cells		Cc1ncsc1-c1ccc([C@H](C)NC(=O)[C@@H]2C[C@@H](O)CN2C(=O)[C@@H](NC(=O)CCCCCC(=O)N2CCN(CC[C@H](CSc3ccccc3)Nc3ccc(S(=O)(=O)NC(=O)c4ccc(N5CCN(CC6=C(c7ccc(Cl)cc7)CCC(C)(C)C6)CC5)cc4)cc3S(=O)(=O)C(F)(F)F)CC2)C(C)(C)C)cc1 [DT-2216]	
5.7	3 µL/min/1e6 cells	< 0.001	< 0.1 ×10⁻⁶ cm/s	77%	< 0.002	3 µL/min/1e6 cells	< 0.001	< 0.001	77%	0.6	9 µL/min/1e6 cells	0.5	0.7	23 µL/min/1e6 cells	< 0.003	< 0.1 ×10⁻⁶ cm/s	< 0.001	5 µL/min/1e6 cells	274 µg/mL (≈ 378 µM)	O=C1CC[C@H](N2Cc3cc(N4CCN(CC5CCN(c6ccc([C@@H]7c8ccc(O)cc8CC[C@@H]7c7ccccc7)cc6)CC5)CC4)ccc3C2=O)C(=O)N1 [VEPDEGESTRANT]	solubility at 24 h [21]: 2.6 µg/mL (≈ 3.59 µM); solubility at 24 h [22]: 230 µg/mL (≈ 318 µM)
1.9	< 1 µL/min/1e6 cells	0.232	< 0.1 ×10⁻⁶ cm/s	65%	0.427	5 µL/min/1e6 cells	0.41	0.35	84%	1.3	< 1 µL/min/1e6 cells	2.4	2.7	5 µL/min/1e6 cells	0.29	0.1 ×10⁻⁶ cm/s	0.265	3 µL/min/1e6 cells		COc1cc(-c2cn(C)c(=O)c3cnc(N4CCC4)cc23)cc(OC)c1CN1CCC(CN2CCC3(CC2)CN(c2ccc4c(c2)C(=O)N([C@H]2CCC(=O)NC2=O)C4)C3)CC1	
5.3	< 1 µL/min/1e6 cells	0.002	< 0.1 ×10⁻⁶ cm/s	68%		< 1 µL/min/1e6 cells	0.003	0.01	74%	0.7	2 µL/min/1e6 cells	0.8	0.5	4 µL/min/1e6 cells	< 0.004	0.3 ×10⁻⁶ cm/s	0.003	4 µL/min/1e6 cells	3.8 µg/mL (≈ 4.7 µM)	COc1cc(O[C@H]2C(C)(C)[C@H](NC(=O)c3ccc(N4CCC(CN5CCN(c6ccc(C(=O)N[C@H]7CCC(=O)NC7=O)c(F)c6)CC5)CC4)cc3)C2(C)C)ccc1C#N [LUXDEGALUTAMIDE]	solubility at 24 h [21]: 0.4 µg/mL (≈ 0.495 µM); solubility at 24 h [22]: 188 µg/mL (≈ 233 µM)
2.2	5 µL/min/1e6 cells	0.024	2.8 ×10⁻⁶ cm/s	40%	0.094	3 µL/min/1e6 cells	0.067	0.178	43%	1.1	3 µL/min/1e6 cells	2.6	1	4 µL/min/1e6 cells	0.024	8.7 ×10⁻⁶ cm/s	0.073	16 µL/min/1e6 cells	51 µg/mL (≈ 63.2 µM)	CN1CCN([C@@H]2CCCN(c3cnc(C(N)=O)c(Nc4ccc(C5CCN(CC6CCN(c7ccc(C(=O)N[C@H]8CCC(=O)NC8=O)nc7)CC6)CC5)cc4)n3)C2)C1=O [NX-5948]	solubility at 24 h [21]: 2.5 µg/mL (≈ 3.1 µM); solubility at 24 h [22]: 559 µg/mL (≈ 693 µM)
5.2	3 µL/min/1e6 cells		< 0.3 ×10⁻⁶ cm/s	82%	0.003	≤ 1 µL/min/1e6 cells	< 0.001	< 0.001	72%	0.7	11 µL/min/1e6 cells	0.6	0.6	10 µL/min/1e6 cells	< 0.001	1.2 ×10⁻⁶ cm/s	0.003	5 µL/min/1e6 cells	293 µg/mL (≈ 358 µM)	CCc1cc(N2C(=S)N(c3ccc(C#N)c(C(F)(F)F)c3)C(=O)C2(C)C)ccc1OCCN1CCN(CC(=O)Nc2cccc(NC3CCC(=O)NC3=O)c2)[C@H](C)C1 (stereo partly drawn)	solubility at 24 h [21]: 0.3 µg/mL (≈ 0.366 µM); solubility at 24 h [22]: 16 µg/mL (≈ 19.5 µM)
5.1	2 µL/min/1e6 cells	< 0.001	< 0.1 ×10⁻⁶ cm/s	14%		< 1 µL/min/1e6 cells		0.008	1%	0.7	< 1 µL/min/1e6 cells	0.6	0.7	3 µL/min/1e6 cells	< 0.001	0.1 ×10⁻⁶ cm/s		5 µL/min/1e6 cells	192 µg/mL (≈ 236 µM)	N#Cc1ccc(O[C@H]2CC[C@H](NC(=O)c3ccc(N4CCC(CN5CCN(c6cc7c(cc6F)C(=O)N([C@H]6CCC(=O)NC6=O)C7=O)CC5)CC4)nn3)CC2)cc1Cl	solubility at 24 h [21]: 1.6 µg/mL (≈ 1.97 µM); solubility at 24 h [22]: 230 µg/mL (≈ 283 µM)

SMILES	chromatographic logD [1]	hepatocyte CLint at 1 µM [2]	fraction unbound at 18 h, 5 µM [3]	Papp A→B at 2 h, 1 µM [4]	recovery at 18 h, 5 µM [5]	fraction unbound at 18 h, 5 µM [6]	hepatocyte CLint at 1 µM [7]	fraction unbound at 18 h, 5 µM [8]	fraction unbound at 18 h, 5 µM [9]	remaining at 18 h, 5 µM [10]	blood plasma ratio at 0.5 h, 10 µM [11]	hepatocyte CLint at 1 µM [12]	blood plasma ratio at 0.5 h, 10 µM [13]	blood plasma ratio at 0.5 h, 10 µM [14]	hepatocyte CLint at 1 µM [15]	fraction unbound at 18 h, 5 µM [16]	Papp A→B at 2 h, 1 µM [17]	fraction unbound at 18 h, 5 µM [18]	hepatocyte CLint at 1 µM [19]	solubility at 24 h [20]	further results
Cn1c(=O)n([C@H]2CCC(=O)NC2=O)c2cccc(C#CCOC3CCN(C[C@H]4CC[C@H](n5cc(NC(=O)c6cnn7ccc(N8C[C@H]9C[C@@H]8CO9)nc67)c(C(F)F)n5)CC4)CC3)c21	2.4	3 µL/min/1e6 cells	0.008	2.4 ×10⁻⁶ cm/s	56%	0.035	4 µL/min/1e6 cells	0.026	0.069	68%		11 µL/min/1e6 cells			11 µL/min/1e6 cells	0.022	5.3 ×10⁻⁶ cm/s		10 µL/min/1e6 cells	33 µg/mL (≈ 38.1 µM)	solubility at 24 h [21]: 1.6 µg/mL (≈ 1.85 µM); solubility at 24 h [22]: 4.1 µg/mL (≈ 4.73 µM)
